Experimental data reported in PubChem BioAssay (NCI).
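Five compound concentrations were applied to cells in 96-well plates for 48 hours; endpoints were derived by simple linear interpolation of the resulting dose-response curve. Here, GI50 denotes the concentration required for 50% inhibition of growth. The concentration for full growth arrest is given as TGI.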

Assays:
Test in all cases: inhibition of tumour cell growth, NCI panel, 48 h
HOP-92 NSCLC = test system: HOP-92 NSCLC
SN12C renal = test system: SN12C renal
BT-549 breast = test system: BT-549 breast
EKVX NSCLC = test system: EKVX NSCLC
HCT-116 colon = test system: HCT-116 colon
NCI-H226 lung = test system: NCI-H226 lung
UO-31 renal = test system: UO-31 renal
A498 renal = test system: A498 renal
TK-10 renal = test system: TK-10 renal
RXF 393 renal = test system: RXF 393 renal
OVCAR-5 ovarian = test system: OVCAR-5 ovarian
SR leukemia = test system: SR leukemia
ACHN renal = test system: ACHN renal
MDA-MB-435 = test system: MDA-MB-435
NCI/ADR-RES ovarian = test system: NCI/ADR-RES ovarian
SNB-75 CNS = test system: SNB-75 CNS
HCT-15 colon = test system: HCT-15 colon
LOX IMVI melanoma = test system: LOX IMVI melanoma
HL-60(TB) leukemia = test system: HL-60(TB) leukemia
U251 CNS = test system: U251 CNS
SK-MEL-2 melanoma = test system: SK-MEL-2 melanoma
SW-620 colon = test system: SW-620 colon
SK-MEL-28 melanoma = test system: SK-MEL-28 melanoma
NCI-H522 lung = test system: NCI-H522 lung
UACC-62 melanoma = test system: UACC-62 melanoma
MDA-MB-468 breast = test system: MDA-MB-468 breast
PC-3 prostate = test system: PC-3 prostate
HOP-62 NSCLC = test system: HOP-62 NSCLC
SK-MEL-5 melanoma = test system: SK-MEL-5 melanoma
UACC-257 melanoma = test system: UACC-257 melanoma
MDA-MB-231 breast = test system: MDA-MB-231 breast
M14 melanoma = test system: M14 melanoma
A549 NSCLC = test system: A549 NSCLC
HS 578T breast = test system: HS 578T breast
T-47D breast = test system: T-47D breast
MCF7 breast = test system: MCF7 breast
SF-268 CNS = test system: SF-268 CNS
DU-145 prostate = test system: DU-145 prostate
MALME-3M melanoma = test system: MALME-3M melanoma
K-562 leukemia = test system: K-562 leukemia
SF-295 CNS = test system: SF-295 CNS
NCI-H460 lung = test system: NCI-H460 lung
SNB-19 CNS = test system: SNB-19 CNS
COLO 205 colon = test system: COLO 205 colon
CAKI-1 renal = test system: CAKI-1 renal
MOLT-4 leukemia = test system: MOLT-4 leukemia
RPMI-8226 leukemia = test system: RPMI-8226 leukemia
OVCAR-8 ovarian = test system: OVCAR-8 ovarian
KM12 colon = test system: KM12 colon
CCRF-CEM leukemia = test system: CCRF-CEM leukemia
OVCAR-4 ovarian = test system: OVCAR-4 ovarian
NCI-H23 lung = test system: NCI-H23 lung
OVCAR-3 ovarian = test system: OVCAR-3 ovarian
HCC-2998 colon = test system: HCC-2998 colon
SK-OV-3 ovarian = test system: SK-OV-3 ovarian
IGROV1 ovarian = test system: IGROV1 ovarian
SF-539 CNS = test system: SF-539 CNS

COc1cccc2nc(Nc3cccc(NC(=O)c4ccc(CN5CCN(C)CC5)c(C(F)(F)F)c4)c3)ccc12
GI50 (HOP-92 NSCLC): 1.5 µM
TGI (HOP-92 NSCLC): 3.86 µM
GI50 (SN12C renal): 1.71 µM
TGI (SN12C renal): 3.3 µM
GI50 (BT-549 breast): 7.01 µM
TGI (BT-549 breast): 19.2 µM
GI50 (EKVX NSCLC): 2.1 µM
TGI (EKVX NSCLC): 4.71 µM
GI50 (HCT-116 colon): 1.82 µM
TGI (HCT-116 colon): 3.57 µM
GI50 (NCI-H226 lung): 4.63 µM
TGI (NCI-H226 lung): 15.8 µM
GI50 (UO-31 renal): 1.64 µM
TGI (UO-31 renal): 3.18 µM
GI50 (A498 renal): 2 µM
TGI (A498 renal): 4.98 µM
GI50 (TK-10 renal): 2.15 µM
TGI (TK-10 renal): 4.65 µM
GI50 (RXF 393 renal): 1.73 µM
TGI (RXF 393 renal): 3.96 µM
GI50 (OVCAR-5 ovarian): 1.84 µM
TGI (OVCAR-5 ovarian): 3.71 µM
GI50 (SR leukemia): 1.85 µM
TGI (SR leukemia): 5.65 µM
GI50 (ACHN renal): 2.05 µM
TGI (ACHN renal): 4.4 µM
GI50 (MDA-MB-435): 1.68 µM
TGI (MDA-MB-435): 3.21 µM
GI50 (NCI/ADR-RES ovarian): 2.28 µM
TGI (NCI/ADR-RES ovarian): 5.95 µM
GI50 (SNB-75 CNS): 1.6 µM
TGI (SNB-75 CNS): 4.37 µM
GI50 (HCT-15 colon): 1.78 µM
TGI (HCT-15 colon): 3.56 µM
GI50 (LOX IMVI melanoma): 1.74 µM
TGI (LOX IMVI melanoma): 3.26 µM
GI50 (HL-60(TB) leukemia): 1.22 µM
TGI (HL-60(TB) leukemia): 4.09 µM
GI50 (U251 CNS): 1.92 µM
TGI (U251 CNS): 3.71 µM
GI50 (SK-MEL-2 melanoma): 3.52 µM
TGI (SK-MEL-2 melanoma): 12.2 µM
GI50 (SW-620 colon): 1.73 µM
TGI (SW-620 colon): 3.27 µM
GI50 (SK-MEL-28 melanoma): 1.71 µM
TGI (SK-MEL-28 melanoma): 3.13 µM
GI50 (NCI-H522 lung): 1.79 µM
TGI (NCI-H522 lung): 3.65 µM
GI50 (UACC-62 melanoma): 1.75 µM
TGI (UACC-62 melanoma): 3.22 µM
GI50 (MDA-MB-468 breast): 1.92 µM
TGI (MDA-MB-468 breast): 3.89 µM
GI50 (PC-3 prostate): 1.7 µM
TGI (PC-3 prostate): 4.46 µM
GI50 (HOP-62 NSCLC): 1.56 µM
TGI (HOP-62 NSCLC): 3.11 µM
GI50 (SK-MEL-5 melanoma): 1.62 µM
TGI (SK-MEL-5 melanoma): 3.02 µM
GI50 (UACC-257 melanoma): 1.98 µM
TGI (UACC-257 melanoma): 3.85 µM
GI50 (MDA-MB-231 breast): 1.77 µM
TGI (MDA-MB-231 breast): 3.39 µM
GI50 (M14 melanoma): 1.76 µM
TGI (M14 melanoma): 3.63 µM
GI50 (A549 NSCLC): 2.44 µM
TGI (A549 NSCLC): 7.8 µM
GI50 (HS 578T breast): 1.84 µM
TGI (HS 578T breast): 4.57 µM
GI50 (T-47D breast): 2.28 µM
TGI (T-47D breast): 5.78 µM
GI50 (MCF7 breast): 1.57 µM
TGI (MCF7 breast): 3.2 µM
GI50 (SF-268 CNS): 1.69 µM
TGI (SF-268 CNS): 3.75 µM
GI50 (DU-145 prostate): 1.98 µM
TGI (DU-145 prostate): 4.42 µM
GI50 (MALME-3M melanoma): 1.65 µM
TGI (MALME-3M melanoma): 3.08 µM
GI50 (K-562 leukemia): 2.7 µM
TGI (K-562 leukemia): > 100 µM
GI50 (SF-295 CNS): 1.77 µM
TGI (SF-295 CNS): 3.31 µM
GI50 (NCI-H460 lung): 1.71 µM
TGI (NCI-H460 lung): 3.19 µM
GI50 (SNB-19 CNS): 1.78 µM
TGI (SNB-19 CNS): 3.38 µM
GI50 (COLO 205 colon): 1.79 µM
TGI (COLO 205 colon): 3.38 µM
GI50 (CAKI-1 renal): 1.81 µM
TGI (CAKI-1 renal): 4.13 µM
GI50 (MOLT-4 leukemia): 1.45 µM
TGI (MOLT-4 leukemia): 7.59 µM
GI50 (RPMI-8226 leukemia): 2.78 µM
TGI (RPMI-8226 leukemia): 8.34 µM
GI50 (OVCAR-8 ovarian): 3.09 µM
TGI (OVCAR-8 ovarian): 10.7 µM
GI50 (KM12 colon): 2.13 µM
TGI (KM12 colon): 4.59 µM
GI50 (CCRF-CEM leukemia): 2.1 µM
TGI (CCRF-CEM leukemia): 6.43 µM
GI50 (OVCAR-4 ovarian): 2.21 µM
TGI (OVCAR-4 ovarian): 5.94 µM
GI50 (NCI-H23 lung): 1.91 µM
TGI (NCI-H23 lung): 3.73 µM
GI50 (OVCAR-3 ovarian): 2.15 µM
TGI (OVCAR-3 ovarian): 5.17 µM
GI50 (HCC-2998 colon): 1.99 µM
TGI (HCC-2998 colon): 3.45 µM
GI50 (SK-OV-3 ovarian): 9.22 µM
TGI (SK-OV-3 ovarian): 22.6 µM
GI50 (IGROV1 ovarian): 2.25 µM
TGI (IGROV1 ovarian): 4.82 µM
GI50 (SF-539 CNS): 1.64 µM
TGI (SF-539 CNS): 3.01 µM
